Experimental data reported in patent US20110160249A1, “5-LIPOXYGENASE-ACTIVATING PROTEIN INHIBITOR” (priority 2008, published 2011).
“And” between values parts separate entries of the source, which are not always exact repeats. Equal values may be shown once. Read-outs that look alike come from different tables or passages of the source. Marks after values point to notes of the source that are not given here.

Key:
[1] = molecular target: T1, CYP 2C19 (Homo sapiens, UniProt P33261); experiment: Extracellular Cytochrome P450 inhibition, 2C19; format: in vitro ADME; details: mephenytoin 4′-hydroxylation
T1 construct: from tissue
T1 sequence (P33261 whole entry): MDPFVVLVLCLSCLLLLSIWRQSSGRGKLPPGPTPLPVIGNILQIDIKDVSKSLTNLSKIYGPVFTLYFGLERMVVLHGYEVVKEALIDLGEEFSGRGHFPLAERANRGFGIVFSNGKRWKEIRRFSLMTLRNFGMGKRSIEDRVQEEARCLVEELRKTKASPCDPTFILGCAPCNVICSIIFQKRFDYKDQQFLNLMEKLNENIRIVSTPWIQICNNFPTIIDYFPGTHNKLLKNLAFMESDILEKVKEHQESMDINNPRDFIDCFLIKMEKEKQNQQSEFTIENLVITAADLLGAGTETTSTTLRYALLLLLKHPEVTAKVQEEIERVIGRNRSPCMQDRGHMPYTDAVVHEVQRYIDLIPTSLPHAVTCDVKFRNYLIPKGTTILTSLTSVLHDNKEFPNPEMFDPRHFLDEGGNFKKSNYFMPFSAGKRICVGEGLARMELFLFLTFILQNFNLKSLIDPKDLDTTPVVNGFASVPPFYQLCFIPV
From the text: Final solvent concentrations were 1% (v/v) or less.

[2] = system: LTB4 in Rat Whole Blood; experiment: Rat whole blood LTB4 inhibition assay; format: cell-based; details: mean of 5 tests
[3] = system: CYP3A4; experiment: Cellular Cytochrome P450 induction, CYP3A4; details: tested at 10 μM, cryopreserved human hepatocytes
[4] = Solubility vs. pH; format: physicochemical; details: 0.15 M aqueous sodium chloride, saline or isotonic, thermodynamic from solid, 0.15M sodium chloride (aqueous), read-out: Solubility, Concentration
Experimental: Suspensions were made up in 0.15M sodium chloride (aqueous) and the pH adjusted to the appropriate value with either diluted hydrochloric acid or sodium hydroxide, to ensure that different salt forms with different solubilities are not produced in solution. The suspension was then allowed to equilibrate for 2 h, and the pH was checked and re-adjusted if required.
The pH of the resultant solution was measured, and the solubility was calculated by HPLC-UV assay of the compound concentration in solution.

[5] = system: CYP2C9; experiment: Cellular Cytochrome P450 induction, CYP2C9; details: tested at 10 μM, cryopreserved human hepatocytes
[6] = mouse, in vivo, po, 250 mg/kg/day
[7] = system: urinary LTE4 production; experiment: Phase I study, urinary LTE4; format: in vivo, human; details: for Emax: Homo sapiens
From the text: (§1) Study Design: Single center, double-blind, randomized, placebo-controlled, single ascending dose followed by multiple ascending dose study.
(§2) Sample Size: (1) Single Dose Phase: eight (8) subjects (6 active, 2 placebo) per dose level; up to 5 dose levels are planned (a total of 40 subjects if all 5 dose levels are completed); and (2) Multiple Dose Phase: eight (8) subjects (6 active, 2 placebo) per dose level; up to 4 dose levels are planned (a total of 32 subjects if all 4 dose levels are completed).
(§3) Formulations: Compound 2 was supplied as an oral powder for reconstitution. Placebo solution matched. […] The placebo differed only in the absence of the active.
(§4) The following dosing cohorts were used:
(§5) Routes of Administration: All doses were administered orally with approximately 100 mL of water rinse. Subjects were fasted for at least 8 hours prior to dosing and for 2 hours after dosing. For BID dosing in the Multiple Dose Phase, when applicable, subjects were fasted for at least 2 hours prior to the second daily dose.
(§6) Plasma concentrations of Compound 1 were determined using a validated LC/MS method. Whole blood ionophore-stimulated leukotriene LTB4 and urinary LTE4 production were assayed by ELISA and mass spectrometry, respectively.
(§7) Analysis of Samples: Concentrations of Compound 1 was determined in plasma samples collected from subjects. Similarly, concentrations of LTB4 in plasma and urinary LTE4 were determined in blood and urine samples collected.

[8] = molecular target: T2, human FLAP (Homo sapiens, UniProt P20292); experiment: FLAP binding assay; details: individual tests 1-8; read-out: IC50 (nM), Inhibition of FLAP Radioligand Binding
T2 sequence (P20292 1-161): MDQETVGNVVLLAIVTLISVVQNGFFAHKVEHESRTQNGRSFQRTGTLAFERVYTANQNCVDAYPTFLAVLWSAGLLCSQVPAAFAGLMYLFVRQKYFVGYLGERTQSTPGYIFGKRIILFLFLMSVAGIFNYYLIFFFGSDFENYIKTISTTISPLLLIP

[9] = system: whole blood ionophore-stimulated leukotriene LTB4; experiment: Phase I study, whole blood ionophore-stimulated LTB4; format: in vivo, human; details: for Emax / EC50 / EC90: Homo sapiens; for Emax: read-out: Emax (%), maximum inhibition of LTB4; for EC50: read-out: EC50 (ng/mL), concentration at which 50% inhibition was reached; for LTB4 level at t = 24 hrs. (% of baseline): oral solution
From the text: as §1, §2, §3, §4, §5, §6, §7

[10] = molecular target: T3, CYP3A4 (Homo sapiens, UniProt P08684); experiment: Extracellular Cytochrome P450 inhibition, 3A4; format: in vitro ADME
T3 construct: from tissue
T3 sequence (P08684 whole entry): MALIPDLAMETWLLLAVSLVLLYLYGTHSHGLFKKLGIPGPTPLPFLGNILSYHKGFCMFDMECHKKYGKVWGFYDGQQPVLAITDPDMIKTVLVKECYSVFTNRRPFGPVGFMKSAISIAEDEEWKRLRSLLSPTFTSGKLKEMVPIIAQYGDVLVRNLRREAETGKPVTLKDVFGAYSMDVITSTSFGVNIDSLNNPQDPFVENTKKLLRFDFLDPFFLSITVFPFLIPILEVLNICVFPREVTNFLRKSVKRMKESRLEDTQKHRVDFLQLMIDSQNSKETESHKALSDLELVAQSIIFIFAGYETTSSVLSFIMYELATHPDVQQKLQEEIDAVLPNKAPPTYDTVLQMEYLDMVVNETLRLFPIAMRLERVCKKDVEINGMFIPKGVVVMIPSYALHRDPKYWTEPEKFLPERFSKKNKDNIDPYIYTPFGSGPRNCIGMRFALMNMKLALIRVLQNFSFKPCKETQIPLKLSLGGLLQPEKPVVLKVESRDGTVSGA

[11] = 24 h, Multiple dose part, Day 1, 10 mg
[12] = 24 h, Multiple dose part, Day 1, 50 mg
[13] = 24 h, Multiple dose part, Day 1, 150 mg
[14] = 24 h, Multiple dose part, Day 1, 450 mg
[15] = 24 h, Single dose part, Day 1, 50 mg
[16] = 24 h, Single dose part, Day 1, 150 mg
[17] = 24 h, Single dose part, Day 1, 300 mg
[18] = 24 h, Single dose part, Day 1, 600 mg
[19] = 24 h, Single dose part, Day 1, 1000 mg
[20] = 264 h, Multiple dose part, Day 11, 10 mg
[21] = 264 h, Multiple dose part, Day 11, 50 mg
[22] = 264 h, Multiple dose part, Day 11, 150 mg
[23] = 264 h, Multiple dose part, Day 11, 450 mg
[24] = Multiple dose part, Day 1, 10 mg
[25] = Multiple dose part, Day 1, 50 mg
[26] = Multiple dose part, Day 1, 150 mg
[27] = Multiple dose part, Day 1, 450 mg
[28] = Multiple dose part, Day 11, 10 mg
[29] = Multiple dose part, Day 11, 50 mg
[30] = Multiple dose part, Day 11, 150 mg
[31] = Multiple dose part, Day 11, 450 mg
[32] = Single dose part, Day 1, 150 mg
[33] = Single dose part, Day 1, 300 mg
[34] = Single dose part, Day 1, 600 mg
[35] = Single dose part, Day 1, 1000 mg

IC50 [1]: > 40 µM | IC50 [2]: 0.239 µM | IC90 [2]: 1.63 µM | induction of CYP3A4 [3]: No apparent induction | solubility at 2 h ([4]; pH 1.1): 26 µg/mL | solubility at 2 h ([4]; pH 3.8): < 0.1 µg/mL | solubility at 2 h ([4]; pH 6.9): 0.7 µg/mL | solubility at 2 h ([4]; pH 9.0): 3500 µg/mL | solubility at 2 h ([4]; pH 9.8): > 10000 µg/mL | solubility at 2 h ([4]; pH 11.2): > 10000 µg/mL | induction of CYP2C9 [5]: No apparent induction | IC50 [8]: 4.9 nM and 4.1 nM and 1.8 nM | EC50 ([9]; 24 h, Multiple dose part, Day 1, Multiple dose total): 51 ng/mL | EC50 ([9]; 24 h, Single dose part, Day 1, Single dose total): 90 ng/mL | EC90 ([9]; 24 h, read-out: EC90 (ng/mL), concentration at which 90% inhibition was reached, Multiple dose part, Day 1, Multiple dose total): 296 ng/mL | EC90 ([9]; 24 h, read-out: EC90 (ng/mL), concentration at which 90% inhibition was reached, Single dose part, Day 1, Single dose total): 342 ng/mL | EC50 ([9]; 264 h, Multiple dose part, Day 11, Multiple dose total): 52 ng/mL | EC90 ([9]; 264 h, read-out: EC90 (ng/mL), concentration at which 90% inhibition was reached, Multiple dose part, Day 11, Multiple dose total): 308 ng/mL | IC50 ([10]; midazolam 1-hydroxylation): > 50 µM | IC50 ([10]; testosterone 6β-hydroxylation): > 40 µM
SMILES: CCOc1ccc(-c2ccc(Cn3c(CC(C)(C)C(=O)[O-])c(SC(C)(C)C)c4cc(OCc5ccc(C)cn5)ccc43)cc2)cn1.[Na+] [Compound 2, sodium 3-[3-(tert-butylsulfanyl)-1-[4-(6-ethoxy-pyridin-3-yl)benzyl]-5-(5-methyl-pyridin-2-yl-methoxy)-1H-indol-2-yl]-2,2-dimethylpropionate]
necropsy, gross abnormalities [6]: no gross abnormalities | Emax [7, 11]: 54.1% | Emax [7, 12]: 94% | Emax [7, 13]: 98.3% | Emax [7, 14]: 85.7% | Emax [7, 15]: 86.3% | Emax [7, 16]: 97.4% | Emax [7, 17]: 97% | Emax [7, 18]: 96% | Emax [7, 19]: 96.6% | Emax [7, 20]: 88.6% | Emax [7, 21]: 97.7% | Emax [7, 22]: 97.5% | Emax [7, 23]: 98.4% | Tmax (h), LTE4 [7, 24]: 24.00 h | Tmax (h), LTE4 [7, 25]: 16.00 h | Tmax (h), LTE4 [7, 26]: 24.00 h | Tmax (h), LTE4 [7, 27]: 24.00 h | Tmax (h), LTE4 [7, 28]: 12.00 h | Tmax (h), LTE4 [7, 29]: 9.00 h | Tmax (h), LTE4 [7, 30]: 24.00 h | Tmax (h), LTE4 [7, 31]: 12.00 h | Tmax (h), LTE4 ([7]; Single dose part, Day 1, 50 mg): 16.00 h | Tmax (h), LTE4 [7, 32]: 16.00 h | Tmax (h), LTE4 [7, 33]: 24.00 h | Tmax (h), LTE4 [7, 34]: 24.00 h | Tmax (h), LTE4 [7, 35]: 16.00 h | Emax [9, 11]: 60.8% | Emax [9, 12]: 89.6% | Emax [9, 13]: 98.5% | Emax [9, 14]: 97.6% | Emax [9, 15]: 87.9% | Emax [9, 16]: 98.8% | Emax [9, 17]: 102% | Emax [9, 18]: 100% | Emax [9, 19]: 99.6% | Emax [9, 20]: 74.4% | Emax [9, 21]: 97.9% | Emax [9, 22]: 99.7% | Emax [9, 23]: 101% | Tmax (h), time to reach Emax [9, 24]: 12.00 h | tE>90% (h), time above 90% LTB4 inhibition [9, 24]: 0.0 h | Tmax (h), time to reach Emax [9, 25]: 4.00 h | tE>50% (h), time above 50% LTB4 inhibition [9, 25]: >23.3 h | tE>90% (h), time above 90% LTB4 inhibition [9, 25]: 0.0 h | Tmax (h), time to reach Emax [9, 26]: 3.00 h | tE>50% (h), time above 50% LTB4 inhibition [9, 26]: >23.4 h | Tmax (h), time to reach Emax [9, 27]: 3.00 h | tE>50% (h), time above 50% LTB4 inhibition [9, 27]: >23.7 h | Tmax (h), time to reach Emax [9, 28]: 12.00 h | tE>90% (h), time above 90% LTB4 inhibition [9, 28]: 0.0 h | Tmax (h), time to reach Emax [9, 29]: 4.00 h | tE>90% (h), time above 90% LTB4 inhibition [9, 29]: 10.0 h | Tmax (h), time to reach Emax [9, 30]: 2.00 h | tE>50% (h), time above 50% LTB4 inhibition [9, 30]: >72.0 h | Tmax (h), time to reach Emax [9, 31]: 2.00 h | tE>50% (h), time above 50% LTB4 inhibition [9, 31]: >72.0 h | Tmax (h), time to reach Emax ([9]; Single dose part, Day 1, 50 mg): 8.00 h | tE>90% (h), time above 90% LTB4 inhibition ([9]; Single dose part, Day 1, 50 mg): 0.0 h | Tmax (h), time to reach Emax [9, 32]: 6.00 h | Tmax (h), time to reach Emax [9, 33]: 8.00 h | tE>50% (h), time above 50% LTB4 inhibition ([9]; Single dose part, Day 1, 300 mg, estimated): ~30^# h | Tmax (h), time to reach Emax [9, 34]: 6.00 h | tE>50% (h), time above 50% LTB4 inhibition [9, 34]: >71.7 h | Tmax (h), time to reach Emax [9, 35]: 6.00 h | tE>50% (h), time above 50% LTB4 inhibition [9, 35]: >71.7 h | LTB4 level at t = 24 hrs. (% of baseline) ([9]; single dose 50 mg): 37 ± 4.7 % of baseline | LTB4 level at t = 24 hrs. (% of baseline) ([9]; single dose 150 mg): 24 ± 4.4 % of baseline | LTB4 level at t = 24 hrs. (% of baseline) ([9]; single dose 300 mg): 23 ± 8.3 % of baseline | LTB4 level at t = 24 hrs. (% of baseline) ([9]; single dose 600 mg): 1.6 ± 0.98 % of baseline | LTB4 level at t = 24 hrs. (% of baseline) ([9]; single dose 1000 mg): 1.9 ± 0.41 % of baseline
